The results in this text go back to patent US20180000771A1, “AGENT FOR PREVENTING AND/OR TREATING AMYOTROPHIC LATERAL SCLEROSIS” (KYOTO UNIVERSITY, priority 2015, published 2018).

Assay [1] deals with motoneuron cells derived from iPS cells having SOD1-L144FVX mutation. Briefly: survival of motoneuron cells induced from ALS patient iPS cells (SOD1 mutation). The following applies: for dose correlation in the protection effect on motoneuron cell having SOD1 mutation: FIG. 2, FIG. 6; for MN index (motoneuron cell survival number ratio as compared to negative control): SOD1-L144FVX motoneuron cells contacted with medicament for 7 days, negative control DMSO; for survival of motor neuron: familial ALS (mSOD1 ALS) motoneuron cells, 0, 0.01, 0.1, 1, 10 μM, n=6, p<0.05, FIG. 7; for cell survival rate improvement, SOD1 mutation / cell survival rate improving effect, significance, SOD1 mutation: added on day 7, survived motoneuron cells counted on day 14.

Assay [2] relates to motoneuron cells derived from iPS cells of ALS patients having C9orf72 mutation. Briefly: survival of motoneuron cells induced from ALS patient iPS cells (C9orf72 mutation). It is filed as cell-based, human. The settings on record: for cell survival rate improvement, C9orf72 mutation / cell survival rate improving effect, significance, C9orf72 mutation: added on day 7, survived motoneuron cells counted on day 14.

Assay [3] deals with motoneuron cells derived from iPS cells of sporadic ALS patients. Briefly: survival of motoneuron cells induced from sporadic ALS patient iPS cells. It is filed as cell-based, human. The following applies: added on day 7, survived motoneuron cells counted on day 14.

Where a name gives a salt, the structure may show the parent alone.

`CC(O)CC(=O)O` (racemic) [3-hydroxybutyric acid]: the “dose correlation in the protection effect on motoneuron cell having SOD1 mutation” value (“dose correlation” below) in assay [1] was “increase in the effect in a dose-dependent manner”.
With `CCN(CC)Cc1cc(Nc2ccnc3cc(Cl)ccc23)ccc1O` [AMODIAQUINE DIHYDROCHLORIDE, AMODIAQUINE], in assay [1], the “MN index (motoneuron cell survival number ratio as compared to negative control)” value was 8.98.
On the same count and under the same terms, with `CN1CCc2cccc3c2[C@H]1Cc1ccc(O)c(O)c1-3` [APOMORPHINE HYDROCHLORIDE, APOMORPHINE] the figure was 7.26.
For `O=C(Nc1c[nH]nc1-c1nc2cc(CN3CCOCC3)ccc2[nH]1)NC1CC1` [AT9283], in assay [1], the “survival of motor neuron” value is reported as “increased survival of motor neuron”.
For `CNC(=O)c1ccccc1Sc1ccc2c(/C=C/c3ccccn3)n[nH]c2c1` [Axitinib], in assay [2], the “efficacy for ALS having C9orf72 mutation (conclusion from Tables 5 and 6)” value was “higher efficacy”; the “cell survival rate improvement, C9orf72 mutation” value is “○ (cell survival rate improvement not less than 20%)”; the “cell survival rate improving effect, significance, C9orf72 mutation” value is “○ (significant difference (p < 0.05))”. Further, in assay [3], the “cell survival rate improvement, sporadic” value is “x (cell survival rate improvement less than 20%)” and the “cell survival rate improving effect, significance, sporadic” value was “x (no significant difference (p ≧ 0.05))”. For the same compound, in assay [1], the “dose correlation” value is given as “increase in the effect in a dose-dependent manner”; the “MN index (motoneuron cell survival number ratio as compared to negative control)” value is given as 7.35; the “cell survival rate improvement, SOD1 mutation” value is “x (cell survival rate improvement less than 20%)”; the “cell survival rate improving effect, significance, SOD1 mutation” value is recorded as “x (no significant difference (p ≧ 0.05))”.
For the compound `CCOc1ccn(-c2ccc(F)cc2)c(=O)c1C(=O)Nc1ccc(Oc2ccnc(N)c2Cl)c(F)c1` [BMS 777607], the “MN index (motoneuron cell survival number ratio as compared to negative control)” value in assay [1] worked out at 8.55.
On the same count and under the same terms, with `Cn1cnc2cc3c(Nc4cccc(Br)c4)ncnc3cc21` [BPIQ-I] the figure was 8.14; with `CCCCOC(=O)c1ccc(N)cc1` [BUTAMBEN], 7.39.
For `Cc1ccc(NC(=O)c2ccc(CN3CC[C@H](N(C)C)C3)c(C(F)(F)F)c2)cc1Nc1nccc(-c2cncnc2)n1` [Bafetinib], in assay [1], the “survival of motor neuron” value is on record as “increased survival of motor neuron”.
For `CCNC(=O)CCC/C=C\C[C@@H]1[C@@H](/C=C/[C@@H](O)CCc2ccccc2)[C@H](O)C[C@@H]1O` [Bimatoprost], the “dose correlation” value in assay [1] is “increase in the effect in a dose-dependent manner”.
Regarding `COc1cc(Nc2c(C#N)cnc3cc(OCCCN4CCN(C)CC4)c(OC)cc23)c(Cl)cc1Cl` [Bosutinib], in assay [2], the “cell survival rate improvement, C9orf72 mutation” value was “○ (cell survival rate improvement not less than 20%)” and the “cell survival rate improving effect, significance, C9orf72 mutation” value is “○ (significant difference (p < 0.05))”. Moreover, in assay [3], the “cell survival rate improvement, sporadic” value was “○ (cell survival rate improvement not less than 20%)” and the “cell survival rate improving effect, significance, sporadic” value was “○ (significant difference (p < 0.05))”. Moreover, in assay [1], the “cell survival rate improvement, SOD1 mutation” value is recorded as “○ (cell survival rate improvement not less than 20%)” and the “cell survival rate improving effect, significance, SOD1 mutation” value was “○ (significant difference (p < 0.05))”.
As for `Cc1nc(N)sc1-c1ccnc(Nc2ccc(N3CCOCC3)cc2)n1` [CYC116], in assay [1], the “MN index (motoneuron cell survival number ratio as compared to negative control)” value is reported as 8.14.
On the same count and under the same terms, to `CCN(CC)C(=O)c1ccc(Nc2nc(OCC3CCCCC3)c3nc[nH]c3n2)cc1` [Cdk2 Inhibitor IV, NU6140] belongs 7.08.
For the compound `C[C@@H](Oc1cc(-c2cnn(C3CCNCC3)c2)cnc1N)c1c(Cl)ccc(F)c1Cl` [Crizotinib (PF- 2341066), Crizotinib], the “MN index (motoneuron cell survival number ratio as compared to negative control)” value in assay [1] is 7.60.
In the case of `C[C@@H](Oc1cc(-c2cnn(C3CCNCC3)c2)cnc1N)c1c(Cl)ccc(F)c1Cl` [Crizotinib], in assay [2], the “cell survival rate improvement, C9orf72 mutation” value was “x (cell survival rate improvement less than 20%)” and the “cell survival rate improving effect, significance, C9orf72 mutation” value is “○ (significant difference (p < 0.05))”. Moreover, in assay [3], the “cell survival rate improvement, sporadic” value is recorded as “x (cell survival rate improvement less than 20%)” and the “cell survival rate improving effect, significance, sporadic” value is “x (no significant difference (p ≧ 0.05))”. Also, in assay [1], the “efficacy for ALS having SOD1 mutation (conclusion from Tables 5 and 6)” value is “higher efficacy”; the “dose correlation” value is “increase in the effect in a dose-dependent manner”; the “cell survival rate improvement, SOD1 mutation” value is reported as “○ (cell survival rate improvement not less than 20%)”; the “cell survival rate improving effect, significance, SOD1 mutation” value was “○ (significant difference (p < 0.05))”.
Take `CC1=NN(c2ccccc2)C(=O)C1` [Edaravone]: the “dose correlation” value in assay [1] is given as “increase in the effect in a dose-dependent manner”.
In the case of `Cn1cc(C2=C(c3cn(C4CCN(Cc5ccccn5)CC4)c4ccccc34)C(=O)NC2=O)c2ccccc21` [Enzastaurin], the “MN index (motoneuron cell survival number ratio as compared to negative control)” value in assay [1] was 9.84.
On to `O=C(O)CCC(=O)c1ccc(-c2ccccc2)cc1` [FENBUFEN], for which the “MN index (motoneuron cell survival number ratio as compared to negative control)” value in assay [1] is given as 7.22.
The same measure, in the same setting: with `CC1(C)O[C@@H]2C[C@H]3[C@@H]4C[C@H](F)C5=CC(=O)C=C[C@]5(C)[C@H]4[C@@H](O)C[C@]3(C)[C@]2(C(=O)CO)O1` [FLUNISOLIDE] the figure was 7.86; with `COc1ccc2c(c1OC)C(=O)OC2C1c2cc3c(cc2CCN1C)OCO3` [HYDRASTINE (1R,9S)], 7.53.
Same read-out and setting: with `Oc1ccc(O)cc1` [HYDROQUINONE] the figure was 7.96.
Consider `Cc1ccc(NC(=O)c2ccc(CN3CCN(C)CC3)cc2)cc1Nc1nccc(-c2cccnc2)n1` [Imatinib], for which the “survival of motor neuron” value in assay [1] was “increased survival of motor neuron”.
For `O=C1Nc2ccccc2/C1=C1/Nc2ccccc2/C1=N\O` [Indirubin-3′-monoxime], the “MN index (motoneuron cell survival number ratio as compared to negative control)” value in assay [1] was 7.54.
On the same count and under the same terms, to `O=C(c1ccc(/C=C/c2n[nH]c3ccccc23)cc1)N1CCNCC1` [KW 2449] belongs 7.72; to `Cn1cnc(-c2cc3nccc(Oc4ccc(NC(=S)NC(=O)Cc5ccccc5)cc4F)c3s2)c1` [MGCD-265], 7.62.
With `Cc1cn(-c2cc(NC(=O)c3ccc(C)c(Nc4nccc(-c5cccnc5)n4)c3)cc(C(F)(F)F)c2)cn1` [Nilotinib], the “survival of motor neuron” value in assay [1] is “increased survival of motor neuron”.
For the compound `O=C(/C=C/C=C/c1ccc2c(c1)OCO2)N1CCCCC1` [PIPERINE], the “MN index (motoneuron cell survival number ratio as compared to negative control)” value in assay [1] turned out to be 7.39.
Still for that read-out and setting: to `Cc1ccc(Nc2nccc(N(C)c3ccc4c(C)n(C)nc4c3)n2)cc1S(N)(=O)=O` [Pazopanib Hydrochloride] belongs 9.53.
For `Cc1ccc(Nc2nccc(N(C)c3ccc4c(C)n(C)nc4c3)n2)cc1S(N)(=O)=O` [Pazopanib], in assay [2], the “cell survival rate improvement, C9orf72 mutation” value was “○ (cell survival rate improvement not less than 20%)” and the “cell survival rate improving effect, significance, C9orf72 mutation” value was “○ (significant difference (p < 0.05))”. In addition, in assay [3], the “cell survival rate improvement, sporadic” value was “x (cell survival rate improvement less than 20%)” and the “cell survival rate improving effect, significance, sporadic” value is on record as “x (no significant difference (p ≧ 0.05))”. For the same compound, in assay [1], the “cell survival rate improvement, SOD1 mutation” value is recorded as “x (cell survival rate improvement less than 20%)” and the “cell survival rate improving effect, significance, SOD1 mutation” value is given as “○ (significant difference (p < 0.05))”.
With `Cc1cc2nc3c(=O)[nH]c(=O)nc-3n(C[C@H](O)[C@H](O)[C@H](O)CO)c2cc1C` [RIBOFLAVIN], the “MN index (motoneuron cell survival number ratio as compared to negative control)” value in assay [1] is 9.55.
Regarding `O=C(c1ccc(OCCN2CCCCC2)cc1)c1c(-c2ccc(O)cc2)sc2cc(O)ccc12` [Raloxifene], the “dose correlation” value in assay [1] is reported as “increase in the effect in a dose-dependent manner”.
Consider `CNC(=O)c1cc(Oc2ccc(NC(=O)Nc3cc(C(C)(C)C)nn3-c3ccc4ncccc4c3)c(F)c2)ccn1` [Rebastinib], for which the “survival of motor neuron” value in assay [1] is reported as “increased survival of motor neuron”.
For the compound `O=C1c2ccccc2-c2n[nH]c3cccc1c23` [SP600125], the “MN index (motoneuron cell survival number ratio as compared to negative control)” value in assay [1] turned out to be 8.38.
On the same count and under the same terms, to `COc1ccc2c(c1)/C(=C/c1c[nH]cn1)C(=O)N2` [SU9516] belongs 8.39; to `NCCNc1ncc(C(N)=O)c(Nc2cccc(C(F)(F)F)c2)n1` [Syk Inhibitor II], 7.59.
On the same count and under the same terms, with `Cc1cc(Nc2cc(N3CCN(C)CC3)nc(Sc3ccc(NC(=O)C4CC4)cc3)n2)n[nH]1` [VX-680, tozasertib] the figure was 9.58; with `O=C1NC(=O)c2c1c(-c1ccccc1Cl)cc1[nH]c3ccc(O)cc3c21` [Weel Inhibitor], 7.18; with `Cc1c(C)c2c(c(C)c1O)CC[C@@](C)(CCC[C@H](C)CCC[C@H](C)CCCC(C)C)O2` [alpha- TOCHOPHEROL, alpha-TOCHOPHEROL], 9.46.
As for Bosutinib [Bosutinib (SKI-606)], the “MN index (motoneuron cell survival number ratio as compared to negative control)” value in assay [1] worked out at 7.20.
Consider Sunitinib Malate, for which, in assay [1], the “MN index (motoneuron cell survival number ratio as compared to negative control)” value was found to be 8.13.
